Laboratory results: patent US20160052926A1, “NOVEL PYRIMIDINE AND PYRIDINE COMPOUNDS AND USAGE THEREOF” (HUTCHISON MEDIPHARMA LIMITED, priority 2013, published 2016)
Read-outs that look alike come from different tables or passages of the source.

How the values were obtained:
Recombinant human FGFR1 = Recombinant human FGFR1 (Homo sapiens, UniProt P11362); assay: Transcreener Kinase Assay of FGFR1; type: biochemical
Protocol: Transcreener Kinase Assay of FGFR1
(§1) Prepare Solution • Compounds were solved in DMSO and were diluted with assay buffer to 5 folds of final concentration keeping the DMSO concentration at 5%. Further dilution are needed to make final concentrations are at 1, 0.33, 0.11, 0.037, 0.012, 0.004, 0.0014, 0.0005 μM; (the final concentration of DMSO is 1%). • Enzyme/Substrate stock Preparation: Recombinant human FGFR1 and Poly E4Y are both diluted in assay buffer.
(§2) Enzymatic Reaction • In a 96-well plate, Add 5 μL of compound or control. (positive control: 5 μL of 5% DMSO; negative control: 5 μL of 500 mM EDTA) into desired wells; • Add 10 μL of Enzyme/Substrate stock into each well; • Add 10 μL of ATP Diluents to initiate the enzyme reaction and votex the plate immediately on a plate shaker; • For the wells to make standard curve, add 5 μL of 5% DMSO, 10 μL of assay buffer and 10 μL of ATP standard curve stock. • Incubate the plate for 45 min at 28[…] on a plate shaker in a low speed.
Excitation wavelength: 610 nm, Emission wavelength: 670 nm.
(§3) • [ADP] in Compound well represents the ADP concentration in compound well. • [ADP] in Positive control well represents the ADP concentration in 5% DMSO well • Conversion of mP value to ADP concentration is calculated based on the formula which determined by standard curve. And mP value is measured by following the instruction provided by BellBrook Labs. (www.bellbrooklabs.com). 6. IC50: calculated using XL-Fit 2.0 software.

RT-112 = assay: Cellular Proliferation Assay (Cell Counting Kit-8), RT-112; type: cell-based; conditions: Homo sapiens, RT-112 cells, 72 hours
Protocol: (§4) Cellular Proliferation Assay
(§5) • KG-1 (ATCC Accession No. CCL-246), • SNU-16 (ATCC Accession No. CRL-5974), • RT-112 (ECACC Accession No. 85061106)
(§6) • FGFR related cancer cell proliferation is measured in 96-well plates using Cell Counting Kit-8 (Dojindo CK04-13). • Seed 30000 cells/well of KG1, 5000 cells/well of SNU16, and 1000 cells/well of RT112 in a volume of 100 μL/well in growth media. • After 24 hours, dilute the compound to 10, 3.3, 1.1, 0.37, 0.12, 0.04, 0.013, 0.004 μM, keeping the DMSO concentration at 5%. • Add 10 μL of 8-point compound series to the wells of culturing cells. • Incubate at 37° C. and 5% CO2 for 72 hours • Add 10 μL/well of CCkit8 and incubate at 37° C. and 5% CO2 for an hour • Detect the optical density of each well at 450 nm on Labsystems Multiskan K3.
(§7) • ODcompound well represents the optical density of cells treated with compound. • ODcell well represents the optical density of cells without compounds treatment. (only 0.5% DMSO) • ODcontrol well represents the optical density of culture media background
(§8) The concentration of compound providing 50% of proliferation inhibition was calculated using Excel Fit.

SNU-16 = assay: Cellular Proliferation Assay (Cell Counting Kit-8), SNU-16; type: cell-based; conditions: Homo sapiens, SNU-16 cells, 72 hours
Protocol: as §4, §5, §6, §7, §8

KG-1 = assay: Cellular Proliferation Assay (Cell Counting Kit-8), KG-1; type: cell-based; conditions: Homo sapiens, KG1 cells, 72 hours
Protocol: as §4, §5, §6, §7, §8

Recombinant human FGFR2 = Recombinant human FGFR2 (Homo sapiens, UniProt P21802); assay: Transcreener Kinase Assay of FGFR2; type: biochemical
Recombinant human FGFR2, sequence (P21802 22-821): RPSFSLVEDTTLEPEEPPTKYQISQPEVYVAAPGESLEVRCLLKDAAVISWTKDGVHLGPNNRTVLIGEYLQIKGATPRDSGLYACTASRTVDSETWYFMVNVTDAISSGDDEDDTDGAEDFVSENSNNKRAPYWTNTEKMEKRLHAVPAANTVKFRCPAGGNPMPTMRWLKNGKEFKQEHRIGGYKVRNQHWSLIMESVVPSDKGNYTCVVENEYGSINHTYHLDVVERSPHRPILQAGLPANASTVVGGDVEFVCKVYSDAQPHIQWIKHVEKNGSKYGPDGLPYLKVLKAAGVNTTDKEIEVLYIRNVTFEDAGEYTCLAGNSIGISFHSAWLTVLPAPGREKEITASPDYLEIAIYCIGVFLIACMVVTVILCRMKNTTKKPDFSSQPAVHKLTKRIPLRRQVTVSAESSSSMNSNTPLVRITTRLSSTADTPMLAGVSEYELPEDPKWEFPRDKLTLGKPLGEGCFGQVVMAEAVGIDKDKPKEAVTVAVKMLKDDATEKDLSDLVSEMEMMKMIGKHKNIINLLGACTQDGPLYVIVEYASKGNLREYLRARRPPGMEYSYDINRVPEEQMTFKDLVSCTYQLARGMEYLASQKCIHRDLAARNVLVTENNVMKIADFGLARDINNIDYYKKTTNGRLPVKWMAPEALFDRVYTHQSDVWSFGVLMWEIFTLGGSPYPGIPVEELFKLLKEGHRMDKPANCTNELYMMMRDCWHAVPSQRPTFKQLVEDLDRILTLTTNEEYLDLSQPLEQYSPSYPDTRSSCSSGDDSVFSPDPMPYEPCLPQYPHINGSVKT
Protocol: Transcreener Kinase Assay of FGFR2
as §1, with “•” for “Prepare Solution •”, “FGFR2” for “FGFR1”, “buffer. The final concentration is 0.3 ng/μL for FGFR2 and 62.5 ng/μL for Poly E4Y. The mixture is being kept in ice before use; • Prepare ATP Diluents, 10 mM ATP is diluted in assay buffer, the final concentration is 25 μM; • Prepare ADP Diluents: diluted ADP (500 μM) in assay buffer, the final concentration is 25 μM; • Prepare ATP standard curve stock as following:” for “buffer.”
as §2, with “•” for “Enzymatic Reaction •”
• Detection Mix Preparation: The mixture is made by dilution with MilliQ water; as following: ADP Alexa633 tracer (1:100), ADP antibody (1:158), and stop & detect buffer (1:10); • Tracer Only control Preparation: The mixture is made by dilution with MilliQ water; as following: ADP Alexa633 tracer (1:100), and stop & detect buffer (1:10) • No Tracer control Preparation: stop & detect buffer is diluted with MilliQ water; by 10 fold. • Add 25 μL of detection mix, Tracer Only control and No Tracer control into corresponding wells, respectively; • Incubate at 28 °C for 1 h, on a plate shaker in a low speed; • Measure florescence polarization (FP) on TECAN F500. Excitation wavelength: 610 nm, Emission wavelength: 670 nm.
as §3

FGFR3 kinase = FGFR3 kinase (Homo sapiens, UniProt P22607); assay: Z-Lyte Kinase Assay of FGFR3; type: biochemical
FGFR3 kinase, sequence (P22607 23-806): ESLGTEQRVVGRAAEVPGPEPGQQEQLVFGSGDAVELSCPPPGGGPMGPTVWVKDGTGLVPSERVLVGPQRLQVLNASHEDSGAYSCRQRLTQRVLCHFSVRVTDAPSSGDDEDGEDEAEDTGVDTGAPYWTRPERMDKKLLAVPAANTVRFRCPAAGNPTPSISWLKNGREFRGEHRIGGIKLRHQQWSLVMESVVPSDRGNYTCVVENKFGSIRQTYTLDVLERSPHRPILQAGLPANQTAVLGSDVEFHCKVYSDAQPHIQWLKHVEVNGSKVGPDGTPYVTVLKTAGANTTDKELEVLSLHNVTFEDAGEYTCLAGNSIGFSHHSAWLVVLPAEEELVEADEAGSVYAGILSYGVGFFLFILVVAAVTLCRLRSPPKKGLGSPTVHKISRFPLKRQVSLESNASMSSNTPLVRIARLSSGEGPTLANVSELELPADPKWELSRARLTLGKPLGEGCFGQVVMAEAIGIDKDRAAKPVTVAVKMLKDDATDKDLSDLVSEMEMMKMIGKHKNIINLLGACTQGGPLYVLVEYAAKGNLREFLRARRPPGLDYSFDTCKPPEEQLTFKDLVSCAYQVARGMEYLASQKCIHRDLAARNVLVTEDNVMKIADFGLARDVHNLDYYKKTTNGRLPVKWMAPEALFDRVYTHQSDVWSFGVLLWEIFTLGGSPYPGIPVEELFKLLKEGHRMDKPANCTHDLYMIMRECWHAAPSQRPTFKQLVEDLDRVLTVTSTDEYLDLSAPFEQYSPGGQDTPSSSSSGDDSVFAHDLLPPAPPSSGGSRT
Protocol: Z-Lyte Kinase Assay of FGFR3
The final concentrations are 1, 0.33, 0.11, 0.037, 0.012, 0.004, 0.0014, 0.00046 μM, and the final concentration of DMSO is 2%. • 3) Kinase/Peptide Mixture (P/K solution): Prepare Kinase/Peptide Mixture by diluting the kinase to 0.7 μg/ml and the Z-LYTE™ Tyr 4 peptide to 4 μM in 1.33× Kinase Buffer. Mix gently by pipetting. • 4) Phospho-peptide Solution (PP solution): Add 0.4 μl of Z-LYTE™ Tyr 4 Phospho-peptide to 99.6 μl of 1.33× Kinase Buffer. • 5) ATP Solution: Prepare ATP Solution by diluting the 10 mM of ATP in 1.33× Kinase Buffer to 300 uM. • 6) Development Solution: Dilute Development Reagent B with Development Buffer as 1:128.
Shake the plate for 30 Sec and centrifuge (1500 rpm, 1 min) • Seal the plate to protect from the light and incubate the plate for 1 hour at RT (25-30[…]) • 2) Development reaction • Add 5 μl of the Development solution to all wells • Shake the plate for 30 Sec and centrifuge (1500 rpm, 1 min) • Seal the plate to protect from the light and incubate the plate for 1 hour at RT (25-30[…]) • 3) Stop and read • Add 5 μl of the Stop reagent to all wells • Shake the plate for 30 Sec and centrifuge (1500 rpm, 1 min) • Measure the value of Coumarin (Ex400 nm, Em445 nm) and fluorescein (Ex400 nm, Em520 nm), respectively.
Inhibition rate(IR)=1−%Photest Cpd/%PhoC2
• determined with add-in software for Microsoft Excel, XLfit™ (version 2.0) from ID Business Solutions (Guildford, UK)

Recombinant human FGFR1, sequence (P11362 22-822): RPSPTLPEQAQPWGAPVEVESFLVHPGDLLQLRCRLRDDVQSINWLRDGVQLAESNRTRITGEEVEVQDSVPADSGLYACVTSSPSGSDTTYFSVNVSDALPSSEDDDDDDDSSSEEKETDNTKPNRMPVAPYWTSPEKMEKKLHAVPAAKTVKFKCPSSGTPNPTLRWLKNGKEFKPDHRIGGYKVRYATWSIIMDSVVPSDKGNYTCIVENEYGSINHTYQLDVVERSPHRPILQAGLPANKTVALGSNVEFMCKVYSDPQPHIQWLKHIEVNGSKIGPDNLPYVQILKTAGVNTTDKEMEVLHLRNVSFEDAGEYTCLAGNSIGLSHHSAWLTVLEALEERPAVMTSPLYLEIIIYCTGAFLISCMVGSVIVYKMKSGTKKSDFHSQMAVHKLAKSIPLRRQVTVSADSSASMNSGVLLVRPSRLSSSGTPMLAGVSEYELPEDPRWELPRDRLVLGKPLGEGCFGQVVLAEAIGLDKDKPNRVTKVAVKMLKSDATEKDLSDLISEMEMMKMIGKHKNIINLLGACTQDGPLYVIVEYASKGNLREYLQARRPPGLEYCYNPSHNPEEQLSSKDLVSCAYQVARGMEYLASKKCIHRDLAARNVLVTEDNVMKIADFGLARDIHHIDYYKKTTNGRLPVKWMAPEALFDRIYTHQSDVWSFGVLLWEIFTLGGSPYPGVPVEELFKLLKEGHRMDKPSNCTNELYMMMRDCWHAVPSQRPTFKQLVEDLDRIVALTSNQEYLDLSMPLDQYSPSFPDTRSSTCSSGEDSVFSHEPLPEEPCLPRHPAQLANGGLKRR

Compound | IC50 (Recombinant human FGFR1; read-out: FGFR1 (FP) IC50) | IC50 (SNU-16) | IC50 (Recombinant human FGFR2; read-out: FGFR2 (FP) IC50) | IC50 (FGFR3 kinase) | IC50 (RT-112) | IC50 (KG-1) | IC50 (Recombinant human FGFR1; FGFR1 (FP) IC50) | IC50 (Recombinant human FGFR2; FGFR2 (FP) IC50)
CNC(=O)c1cc(CCc2cnc(Nc3ccc4c(c3)OCO4)nc2)c(F)c(OC)c1 [Compound 31] | 42 nM | 236 nM | 23 nM | 287 nM | 491 nM | 178 nM |  | 
CCS(=O)(=O)n1cc(Nc2ncc(CCc3cc(C(=O)NC)cc(OC)c3F)cn2)cn1 [Compound 140, 3-(2-(2-(1-(ethylsulfonyl)-1H-pyrazol-4-ylamino)pyrimidin-5-yl)ethyl)-4-fluoro-5-methoxy-N-methylbenzamide] |  | 62 nM | 16 nM | 60 nM | 438 nM | 152 nM |  | 
CNC(=O)c1cc(OC)c(F)c(COc2cnc(Nc3ccc(N4C[C@@H](C)N[C@@H](C)C4)cc3)nc2)c1F [Compound 199] | 13 nM | 18 nM | 7 nM | 8 nM | 41 nM | 20 nM |  | 
CCn1cc(Nc2ncc(OCc3cc(C(=O)NC)cc(OC)c3Cl)cn2)cn1 [Compound 184] | 9 nM | 10 nM | 7 nM |  | 53 nM | 5 nM |  | 
CCn1cc(Nc2ncc(/C=C/c3cc(C(=O)NC)cc(OC)c3Br)cn2)cn1 [Compound 3] |  | 134 nM |  |  | 370 nM | 72 nM |  | 
CNC(=O)c1cc(CCc2cnc(Nc3cnn(CC4CC4)c3)nc2)c(F)c(OC)c1 [Compound 141, 3-(2-(2-(1-(cyclopropylmethyl)-1H-pyrazol-4-ylamino)pyrimidin-5-yl)ethyl)-4-fluoro-5-methoxy-N-methylbenzamide] |  |  |  |  | 112 nM | 15 nM | 11 nM | 5 nM
CCN1CCN(c2ccc(Nc3ncc(CCc4cc(OC)cc(C(=O)NC5CC5)c4)cn3)cc2)CC1 [Compound 46] | 132 nM | 113 nM | 34 nM | 61 nM |  | 59 nM |  | 
CCN1CCN(c2ccc(Nc3ncc(CCc4cc(C(=O)NOC)cc(OC)c4C)cn3)cc2)CC1 [Compound 52] | 1 nM | 5 nM | 2 nM | 5 nM |  | 4 nM |  | 
CCN1CCN(c2ccc(Nc3ncc(/C=C/c4cc(OC)cc(C(=O)NOC)c4)cn3)cc2)CC1 [Compound 16] | 12 nM | 17 nM | 8 nM | 16 nM |  | 13 nM |  | 
CCN1CCN(c2ccc(Nc3ncc(CCc4cc(C(=O)NC)cc(OC)c4Cl)cn3)cc2)CC1 [Compound 56] | 4 nM | 17 nM | 4 nM | 9 nM |  | 7 nM |  | 
CONC(=O)c1cc(CCc2cnc(Nc3ccc(OCCN4CCCC4)cc3)nc2)cc(OC)c1 [Compound 43] | 16 nM | 33 nM | 10 nM | 48 nM |  | 69 nM |  | 
CCN1CCN(c2ccc(Nc3ncc(CCc4cc(OC)cc(C(=O)NOCCO)c4)cn3)cc2)CC1 [Compound 20, 3-(2-(2-((4-(4-ethylpiperazin-1-yl)phenyl)amino)pyrimidin-5-yl)ethyl)-N-(2-hydroxyethoxy)-5-methoxybenzamide] | 43 nM | 340 nM | 34 nM | 128 nM |  | 589 nM |  | 

The remaining molecules from weak to strong by IC50 (SNU-16), led by results:

IC50 (Recombinant human FGFR1; read-out: FGFR1 (FP) IC50) | IC50 (SNU-16) | IC50 (Recombinant human FGFR2; read-out: FGFR2 (FP) IC50) | IC50 (FGFR3 kinase) | Compound | IC50 (RT-112) | IC50 (KG-1) | IC50 (Recombinant human FGFR1; FGFR1 (FP) IC50) | IC50 (Recombinant human FGFR2; FGFR2 (FP) IC50)
54 nM | 158 nM | 17 nM | 62 nM | CNC(=O)c1cc(CCc2cnc(Nc3ccnnc3)nc2)c(F)c(OC)c1 [Compound 61] |  | 400 nM |  | 
47 nM | 151 nM | 27 nM | 94 nM | CONC(=O)c1cc(CCc2cnc(Nc3ccn(C)n3)nc2)cc(OC)c1 [Compound 24] |  | 122 nM |  | 
63 nM | 150 nM | 44 nM | 119 nM | CNC(=O)c1cc(CCc2cnc(Nc3ccc4nnnn4c3)nc2)c(F)c(OC)c1 [Compound 96] |  | 161 nM |  | 
23 nM | 29 nM | 12 nM | 34 nM | CNC(=O)c1cc(CCc2cnc(Nc3cnn(CC(C)C)c3)nc2)c(F)c(OC)c1 [Compound 118] | 220 nM | 26 nM |  | 
9 nM | 18 nM | 5 nM | 13 nM | CNC(=O)c1cc(CCc2cnc(Nc3cnn([C@@H]4CCOC4)c3)nc2)c(F)c(OC)c1 [Compound 123] | 135 nM | 26 nM |  | 
5 nM | 16 nM | 5 nM | 15 nM | CCN1CCN(c2ccc(Nc3ncc(CCc4cc(OC)cc(C(=O)NOC)c4)cn3)cc2)C[C@H]1C [Compound 48] |  | 11 nM |  | 
7 nM | 8 nM | 5 nM |  | CNC(=O)c1cc(COc2cnc(Nc3cnn(C)c3)nc2)c(Cl)c(OC)c1 [Compound 183] | 14 nM | 9 nM |  | 
